# Source: PubChem BioAssay (NCI)
#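 Assay format: 96-well plates, 48-hour exposure. TGI denotes the concentration required for complete inhibition of growth.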
# System: SW-620 colon
# Assay: growth of human tumour cells (NCI), 48 h
row,SMILES,TGI [µM]
1,COC(=O)C1=CC2C(=O)c3ccccc3C1(c1ccccc1)N2C1CCCCC1 (stereo unspecified),> 100
2,O=C(O)CC1OCC=C2CN3CCC45c6ccccc6NC4C1C2CC35 (stereo unspecified),> 100
3,C=C(C)C1CC=C(C)C(=O)C1 (stereo unspecified),> 100
4,N#Cc1ccc(NC(=NCC(=O)O)Nc2cccc3ccccc23)cc1,> 10
5,CC(=O)c1c(-c2ccc(Cl)cc2)c(-c2ccc(Cl)cc2)n[nH]c1=O,> 100
6,CC(=O)C(C(=O)c1ccc(C)cc1)[C@@H]1OC(C)(C)O[C@@H]1[C@H]1COC(C)(C)O1 (stereo partly specified),> 54.6
7,CC12CCCC(O)C1CCC1=CC3(CCC12)SCCS3 (stereo unspecified),> 10
8,CCCCNC(=S)Nc1nc(C(=O)NNC(=S)NCC)cs1,> 100

# System: SK-MEL-28 melanoma
# Assay: growth of human tumour cells (NCI), 48 h
row,SMILES,TGI [µM]
1,COC(=O)C1=CC2C(=O)c3ccccc3C1(c1ccccc1)N2C1CCCCC1 (stereo unspecified),41.4
2,O=C(O)CC1OCC=C2CN3CCC45c6ccccc6NC4C1C2CC35 (stereo unspecified),> 100
3,C=C(C)C1CC=C(C)C(=O)C1 (stereo unspecified),> 100
4,N#Cc1ccc(NC(=NCC(=O)O)Nc2cccc3ccccc23)cc1,> 10
5,CC(=O)c1c(-c2ccc(Cl)cc2)c(-c2ccc(Cl)cc2)n[nH]c1=O,> 100
6,CC(=O)C(C(=O)c1ccc(C)cc1)[C@@H]1OC(C)(C)O[C@@H]1[C@H]1COC(C)(C)O1 (stereo partly specified),> 77.7
7,CC12CCCC(O)C1CCC1=CC3(CCC12)SCCS3 (stereo unspecified),> 10

# System: BT-549 breast
# Assay: growth of human tumour cells (NCI), 48 h
row,SMILES,TGI [µM]
1,COC(=O)C1=CC2C(=O)c3ccccc3C1(c1ccccc1)N2C1CCCCC1 (stereo unspecified),79.7
2,O=C(O)CC1OCC=C2CN3CCC45c6ccccc6NC4C1C2CC35 (stereo unspecified),> 100
3,CC(=O)C(C(=O)c1ccc(C)cc1)[C@@H]1OC(C)(C)O[C@@H]1[C@H]1COC(C)(C)O1 (stereo partly specified),> 32.4
4,CC12CCCC(O)C1CCC1=CC3(CCC12)SCCS3 (stereo unspecified),> 10
5,CCCCNC(=S)Nc1nc(C(=O)NNC(=S)NCC)cs1,> 100

# System: UO-31 renal
# Assay: growth of human tumour cells (NCI), 48 h
row,SMILES,TGI [µM]
1,COC(=O)C1=CC2C(=O)c3ccccc3C1(c1ccccc1)N2C1CCCCC1 (stereo unspecified),> 100
2,O=C(O)CC1OCC=C2CN3CCC45c6ccccc6NC4C1C2CC35 (stereo unspecified),> 100
3,C=C(C)C1CC=C(C)C(=O)C1 (stereo unspecified),> 100
4,CC(=O)C(C(=O)c1ccc(C)cc1)[C@@H]1OC(C)(C)O[C@@H]1[C@H]1COC(C)(C)O1 (stereo partly specified),> 41.5
5,CCCCNC(=S)Nc1nc(C(=O)NNC(=S)NCC)cs1,> 100

# System: CAKI-1 renal
# Assay: growth of human tumour cells (NCI), 48 h
row,SMILES,TGI [µM]
1,COC(=O)C1=CC2C(=O)c3ccccc3C1(c1ccccc1)N2C1CCCCC1 (stereo unspecified),46.1
2,O=C(O)CC1OCC=C2CN3CCC45c6ccccc6NC4C1C2CC35 (stereo unspecified),> 100
3,C=C(C)C1CC=C(C)C(=O)C1 (stereo unspecified),> 100
4,N#Cc1ccc(NC(=NCC(=O)O)Nc2cccc3ccccc23)cc1,> 10
5,CC(=O)c1c(-c2ccc(Cl)cc2)c(-c2ccc(Cl)cc2)n[nH]c1=O,> 100
6,CC(=O)C(C(=O)c1ccc(C)cc1)[C@@H]1OC(C)(C)O[C@@H]1[C@H]1COC(C)(C)O1 (stereo partly specified),53.6
7,CC12CCCC(O)C1CCC1=CC3(CCC12)SCCS3 (stereo unspecified),> 10
8,CCCCNC(=S)Nc1nc(C(=O)NNC(=S)NCC)cs1,> 100

# System: HCC-2998 colon
# Assay: growth of human tumour cells (NCI), 48 h
row,SMILES,TGI [µM]
1,COC(=O)C1=CC2C(=O)c3ccccc3C1(c1ccccc1)N2C1CCCCC1 (stereo unspecified),30.1
2,C=C(C)C1CC=C(C)C(=O)C1 (stereo unspecified),> 100
3,N#Cc1ccc(NC(=NCC(=O)O)Nc2cccc3ccccc23)cc1,> 10
4,CC(=O)c1c(-c2ccc(Cl)cc2)c(-c2ccc(Cl)cc2)n[nH]c1=O,> 100
5,CC(=O)C(C(=O)c1ccc(C)cc1)[C@@H]1OC(C)(C)O[C@@H]1[C@H]1COC(C)(C)O1 (stereo partly specified),> 53.4
6,CC12CCCC(O)C1CCC1=CC3(CCC12)SCCS3 (stereo unspecified),> 10
7,CCCCNC(=S)Nc1nc(C(=O)NNC(=S)NCC)cs1,> 100

# System: OVCAR-3 ovarian
# Assay: growth of human tumour cells (NCI), 48 h
row,SMILES,TGI [µM]
1,COC(=O)C1=CC2C(=O)c3ccccc3C1(c1ccccc1)N2C1CCCCC1 (stereo unspecified),95
2,O=C(O)CC1OCC=C2CN3CCC45c6ccccc6NC4C1C2CC35 (stereo unspecified),> 100
3,C=C(C)C1CC=C(C)C(=O)C1 (stereo unspecified),> 100
4,CC(=O)c1c(-c2ccc(Cl)cc2)c(-c2ccc(Cl)cc2)n[nH]c1=O,79.8
5,CC(=O)C(C(=O)c1ccc(C)cc1)[C@@H]1OC(C)(C)O[C@@H]1[C@H]1COC(C)(C)O1 (stereo partly specified),24.4
6,CC12CCCC(O)C1CCC1=CC3(CCC12)SCCS3 (stereo unspecified),> 10
7,CCCCNC(=S)Nc1nc(C(=O)NNC(=S)NCC)cs1,> 100

# System: COLO 205 colon
# Assay: growth of human tumour cells (NCI), 48 h
row,SMILES,TGI [µM]
1,COC(=O)C1=CC2C(=O)c3ccccc3C1(c1ccccc1)N2C1CCCCC1 (stereo unspecified),26.2
2,O=C(O)CC1OCC=C2CN3CCC45c6ccccc6NC4C1C2CC35 (stereo unspecified),> 100
3,C=C(C)C1CC=C(C)C(=O)C1 (stereo unspecified),> 100
4,N#Cc1ccc(NC(=NCC(=O)O)Nc2cccc3ccccc23)cc1,> 10
